Entries after “also recorded” stand apart in the source; their conditions may differ.
Columns and labels:
MTLn3 cells [1] = assay: EGF-stimulated lamellipodial (membrane) protrusion in MTLn3 cells; type: cell-based
Method: (§1) FIG. 2A-2G. Inhibition of PTP1b phenocopies expression of Mena^INV. (A) MDA-MB231 cells were serum starved for 4 h with addition of 10 μM PTP1b inhibitor (EMD Calbiochem) for the time indicated. Cells were then stimulated with 0.5 nM EGF and lamellipodial protrusion was measured 8 min post-stimulation. […] (G) Inhibition of PTP1b in vivo shifts the sensitivity of GFP-Control MTLn3 xenografted cells to 5 nM (a 5× increase in sensitivity). *p<0.05 and **p<0.01 by ANOVA and Tukey post-test.
(§2) FIG. 8A-8D: The activity of SHIP2 is not required for early stages of Mena^INV-induced lamellipodial protrusion. MDA-MB231 (A,B) and MTLn3 (C,D) cells were incubated for 4 h with 10 μM AS1949490 in serum-free medium. Cells were stimulated with 0.25 nM (A,B) or 0.5 nM (C,D) EGF and membrane protrusion was recorded 8 min.
What could account for the phenotypes associated with inclusion of the INV exon of Mena, that include: increased activation of EGFR and downstream EGFR-mediated, motility-specific signaling pathways, increased cell invasion, and decreased efficacy of tyrosine kinase inhibition? One route to aberrant signal amplification is dysregulation of control nodes within the protein network, such as phosphatases, that could lead to prolonged or amplified phosphorylation states. Identification of potential Mena and Mena^INV interacting partners that might affect phosphatase activity can shed light on this. Attempts were made at identification of Mena isoforms-specific interacting partners via mass spectrometric analysis. Several unsuccessful attempts to purify Mena interacting partners through a co-immunprecipitation and the mass spectrometric approach resulted. A bioinformatics screening approach was then used. A list of 38 human phosphatases was queried for potential Ena/VASP interaction motifs, with the hypothesis that an interaction between Mena^INV and a phosphatase important for attenuating growth factor responses could lead to increased signaling upon growth factor stimulation. […]

MDA-MB231 cells [2] = assay: EGF-stimulated lamellipodial (membrane) protrusion in MDA-MB231 cells; type: cell-based; conditions: for lamellipodial protrusion 8 min post-stimulation: 0.5 nM EGF
Method: as §1
as §2, with “min. […]” for “min.”
In contrast, inhibition of PTP1b increased lamellipodial protrusion in MDA-MB231-GFP control cells in a time dependent manner in response to 0.5 nM EGF.

mammary carcinoma cells = assay: In vivo invasion of mammary carcinoma cells under Erlotinib
cells expressing MenaINV = assay: Membrane protrusion after 1 nM EGF with increasing doses of Erlotinib; type: cell-based
Method: FIG. 6A-6D: Cells expressing MenaINV are resistant to EGFR targeted kinase inhibitors. [A] […] Data was combined to generate novel hypothesis regarding clinically-relevant treatment regimes for invasive breast cancer. […]. Membrane protrusion was quantified 8 min post-EGF/drug addition. *p<0.05, **p<0.01, ***p<0.001. […]. Cells were serum starved and then stimulated with EGF and drug for 3 min. Cells were lysed and the level of EGFR-pY1173 was determined by semi-quantitative Western Blot.
. To test this hypothesis, serum-starved cells were treated with 1.0 nM EGF and increasing doses of DMSO (carrier control) or Erlotinib and measured EGFR phosphorylation at 3 min post-stimulation (FIG. 6B). […]. […] Further, electron microscopy was performed using ultra-small gold particles to examine receptor distribution along the cell membrane to determine if increased clustering of the receptor might affect drug binding or signal propagation. However, no significant difference was found in receptor clustering in the analysis (FIG. 7).

MTLn3 cells [3] = assay: PI(4,5)P2 hydrolysis, mCherry-tagged PH-domain biosensor (PLCγ activity); type: cell-based; conditions: GFP-control MTLn3, 10 μM pre-incubation, 0.5 nM EGF, 3 min post-EGF, versus DMSO
Method: (§3) FIG. 9A-9C: PTP1b inhibition increases EGFR pathway activation. MDA-MB231 cells expressing GFP-control or GFPMena^INV were serum starved for 4 h and stimulated with 0.25 nM EGF in the presence or absence of 10 μM PTP1b (30 min preincubation). Phosphorylation of EGFR on Y1173 was measured using semi-quantitative Western blotting (A, B) of quadruplicate lysates. […] MTLn3 cells were transiently transfected with a mCherry-tagged PHdomain biosensor targeting PI(4,5)P2, starved in L15 media, pre-incubated with 10 μM PTP1bi and then stimulated with 0.5 nM EGF.

[4] = tested on: EGFR Y1173 phosphorylation in MDA-MB231 cells; assay: EGFR Y1173 phosphorylation on PTP1b inhibition, semi-quantitative Western blotting; type: cell-based; conditions: 0.25 nM EGF, 10 μM, 30 min preincubation
Method: as §3

[5] = tested on: xenograft tumors of MTLn3 cells; assay: In vivo invasion assay (needle collection from xenograft tumors); parameters: species or system mouse
Method: An in vivo invasion assay was employed to determine the effect of decreased PTP1b activity on tumor cell chemotaxis. To mimic the in vitro invasion experiments, 50 μM PTP1b inhibitor was added to needles with 10% matrigel and varying concentrations of EGF, the needles inserted into xenograft tumors of MTLn3 cells expressing either GFP or GFP-Mena^INV and cells allowed to crawl into the needle during a 4 h period. Similar to the results obtained in vitro, addition of PTP1b inhibitor to needles used to collect cells had no effect on the number of cells ectopically expressing Mena^INV collected (FIG. 2G). However, PTP1b inhibition increased the sensitivity of control cells 5-fold, decreasing the concentration of EGF required for chemotaxis into the needles from 25 nM to 5 nM. In this assay the discrepancy between expression of Mena^INV and inhibition of PTP1b may be due to the time lag required for inhibitor efficacy.
However, viability of the mouse under anesthesia precludes collection of cells for longer periods than 4 h, therefore this effect is difficult to quantify.

MDA-MB231 cells [6] = assay: In vitro invasion into collagen I gels; type: cell-based; conditions: 0.25 or 0.5 nM EGF
MET [7] = assay: MET kinase activity in cells with MET inhibitor; type: cell-based
MET [8] = assay: HGF-stimulated protrusion assay with MET inhibitor; type: cell-based; conditions: +5 ng/ml HGF
Method: FIG. 11: Cell protrusion assays were performed in which starved carcinoma cells expressing GFP, GFP-Mena or GFP-Mena^INV were stimulated with different concentrations of hepatocyte growth factor (HGF) (analogously as done with EGF stimulation of EGFR) followed by a measurement of cell protrusion several minutes later. The HGF concentrations (x-axis) are nM and the Y-axis is increase in cell size (a reflection of protrusion) compared to unstimulated cells.

SMILES: C[C@H](NC(=O)c1sccc1OCc1ccc(Cl)cc1)c1ccccc1 [AS1949490]
- membrane protrusion at 8 min post-EGF stimulation (MTLn3 cells [1]; MTLn3-GFP-Mena^INV, 10 μM for 4 h, 0.5 nM EGF): reduced the protrusion response; also recorded: decreased membrane protrusion to GFPcontrol levels
- initial protrusion response (kinetics) (MTLn3 cells [1]; MTLn3-GFP-Mena^INV, 10 μM, 0.5 nM EGF, up to 3 min post-stimulation): still demonstrated the fast initial protrusion response
- membrane protrusion at 8 min post-EGF stimulation (MDA-MB231 cells [2]; MDA-MB231-GFP-Mena^INV, 10 μM for 4 h, 0.25 nM EGF): reduced the protrusion response; also recorded: decreased membrane protrusion to GFPcontrol levels
- initial protrusion response (kinetics) (MDA-MB231 cells [2]; MDA-MB231-GFP-Mena^INV, 10 μM, 0.25 nM EGF, up to 3 min post-stimulation): still demonstrated the fast initial protrusion response

SMILES: C#Cc1cccc(Nc2ncnc3cc(OCCOC)c(OCCOC)cc23)c1 [Erlotinib]
- in vivo invasion (mammary carcinoma cells; GFP-expressing mammary carcinoma cells): abrogates in vivo invasion
- in vivo invasion (mammary carcinoma cells; cells that express Mena^INV): does not fully block invasion
- drug required to decrease lamellipodial protrusion, Mena^INV cells compared to control GFP or Mena cells (cells expressing MenaINV; 1 nM EGF, 8 min post-EGF/drug addition): ten-fold more Erlotinib was required; also recorded: Significantly higher doses of Erlotinib (Tarceva) are required
- efficacy after normalizing protrusion to the no-drug response of each cell line (cells expressing MenaINV; across cell lines (FIG. 6D)): roughly equivalent; also recorded: a common response across cell lines

SMILES: CCc1oc2cc(S(=O)(=O)Nc3ccc(S(=O)(=O)Nc4nccs4)cc3)ccc2c1C(=O)c1cc(Br)c(O)c(Br)c1 [PTP1b inhibitor]
- membrane protrusion (magnitude and kinetics) (MTLn3 cells [1]; unmodified MTLn3 cells, EGF (0.5 nM, 5 nM elsewhere in the source)): increased the magnitude and kinetics of membrane protrusion; also recorded: significantly enhanced
- PI(4,5)P2 hydrolysis (PLCγ activity) (MTLn3 cells [3]): increased PI(4,5)P2 hydrolysis
- PI(4,5)P2 hydrolysis (PLCγ activity) (MTLn3 cells [3]; listed as PTP1bi): PLCγ activity is greater
- lamellipodial protrusion 8 min post-stimulation (MDA-MB231 cells [2]; GFP-control cells, 10 μM, 30 min pre-incubation): complete phenocopy of Mena^INV-dependent responses; also recorded: significant increase in membrane protrusion
- kinetics of protrusion (MDA-MB231 cells [2]; MDA-MB231-GFP control cells, 30 min pre-incubation): increased the kinetics of protrusion
- membrane protrusion (MDA-MB231 cells [2]; MDA-MB231-GFP-Mena and GFP control cells, 0.25 nM EGF): increased membrane protrusion; also recorded: protrusion was increased
- kinetics of protrusion (MDA-MB231 cells [2]; MDA-MB231-GFP-Mena^INV cells): without affecting the dynamics
- membrane protrusion (MDA-MB231 cells [2]; MDA-MB231-GFP-Mena^INV cells, 0.25 nM EGF): no further increase was measured
- membrane protrusion (MDA-MB231 cells [2]; cells expressing Mena^INV, 0.125 nM EGF (data not shown)): does not increase membrane protrusion
- lamellipodial protrusion 8 min post-stimulation (MDA-MB231 cells [2]; cells expressing Mena^INV, 10 μM, 30 min pre-incubation): had no effect
- EGFR Y1173 phosphorylation ([4]; GFP control cells): increases EGFR phosphorylation on Y1173; also recorded: increased EGFR Y1173 phosphorylation
- EGFR Y1173 phosphorylation ([4]; GFP control cells, listed as PTP1bi): increased EGFR Y1173 phosphorylation
- EGFR Y1173 phosphorylation ([4]; cells expressing Mena^INV): no additional affect
- increase in sensitivity of control cells to EGF in vivo ([5]; GFP-control MTLn3 xenograft, 50 μM inhibitor in needles, 4 h): 5 fold
- concentration of EGF required for chemotaxis into the needles with inhibitor ([5]; GFP-control MTLn3 xenograft, 50 μM inhibitor, 25 nM without inhibitor): 5 nM
- number of cells collected into needles ([5]; MTLn3 cells ectopically expressing Mena^INV, 50 μM inhibitor): had no effect
- invasion into collagen I gels (MDA-MB231 cells [6]; MDA-MB231-GFP and -GFP-Mena): increased
- invasion into collagen I gels (MDA-MB231 cells [6]; cells expressing Mena^INV): no significant effect

SMILES: Cc1[nH]c(/C=C2\C(=O)Nc3ccc(S(=O)(=O)N(C)c4cccc(Cl)c4)cc32)c(C)c1C(=O)N1CCN(C)CC1 [SU11274]
- response of Mena^INV expressing cells, MET kinase activity (MET [7]): resistant
- response of Mena^INV expressing cells in protrusion assay (MET [8]): resistant
